# Results from patent US5656591A, “Antimicrobial agents and method for treating products therewith” (Morinaga Milk Industry Co., Ltd., priority 1992, dated 1997).
# Assays:
# Escherichia coli 0-111 = assay: Test for antimicrobial activity (turbidity): growth inhibiting concentration of antibiotics; type: cell-based
# Protocol: (§1) Precultures of test microorganisms to be used in the tests described hereunder were prepared in such a manner that: from the frozen preservation of dispersions of test microorganisms, a loop of the respective strains of the microorganisms were taken out and spread onto TRI PETIT CASE SOYA AGAR MEDIA (by BBL Company), and incubated at 37° C. for 16 hours; the colonies grown on the culture media were scraped by a platinum loop and cultivated in 2.1% Mueller-Hington Broth (by Difco Company) respectively for several hours at 37° C. The resultant microbial cultures at logarithmic phase in 3×10^8 /ml of microbial concentration were used as the precultures.
# (§2) The test media to be used in the respective tests were prepared in such a manner that: aqueous solutions in a predetermined concentration of the lactoferrin hydrolysates or the lactoferrin-derived antimicrobial peptides of (1) and (2) in Preparation of Samples (supra), as well as the samples of antibiotics of (3) (supra) were respectively sterilized with filters (by Advantec Company); then a quantity of the resultant solutions of respective samples were selectively added to a quantity of basal medium (Mueller-Hington Broth) prepared in the eventual concentration of 2.1%, thereby combinations of the samples and their concentrations in the respective test media were adjusted as specified in the respective tests.
# (§3) Antimicrobial activity was examined as follows: A quantity of the respective precultures prepared in (1) immediately above was diluted with 2.1% Mueller-Hington Broth to result in 2×10^6 /ml of microbial concentration; 100 μl aliquots of the resultant liquid were added to 100 μl aliquots of one of the test media as specified in the respective test; the resultant media were incubated at 37° C. for 16 hours; then the turbidity of the resultant culture broths were measured thereby antimicrobial activity was examined.
# (§4) Components in the test and control media and eventual concentrations thereof were adjusted by properly combining 0 mg, 0.4 mg, 1.6 mg and 6.4 mg/ml of lactoferrin hydrolysate of (1) (in Preparation of Samples, supra). or 0 μg, 16 μg, 64 μg, and 256 μg/ml of lactoferrin-derived antimicrobial peptides of (2) (in Preparation of Samples, supra), and 0 μg, 0.01 μg, 0.1 μg, 1 μg, and 10 μg/ml of antibiotics of (3) (supra), then antimicrobial activity of the combined use of the components against Escherichia coli 0-111 and Staphylococcus aureus (JCM2151) as well as growth inhibiting concentrations of the antibiotics were investigated.
# [1] = test system: Staphylococcus aureus JCM2151; assay: as above; type: cell-based; details: for MIC: Staphylococcus aureus
# Protocol: as §1, §2, §3, §4
# [2] = Escherichia coli, 0111, antimicrobial peptide (Seq. ID No. 27) 0 μg/ml
# [3] = Escherichia coli, 0111, antimicrobial peptide (Seq. ID No. 27) 16 μg/ml
# [4] = Escherichia coli, 0111, antimicrobial peptide (Seq. ID No. 27) 64 μg/ml
# [5] = Escherichia coli, 0111, antimicrobial peptide (Seq. ID No. 27) 256 μg/ml
# [6] = lactoferrin hydrolysate 0 mg/ml
# [7] = lactoferrin hydrolysate 0.4 mg/ml
# [8] = lactoferrin hydrolysate 1.6 mg/ml
# [9] = lactoferrin hydrolysate 6.4 mg/ml
# [10] = JCM2151, antimicrobial peptide (Seq. ID No. 27) 0 μg/ml
# [11] = JCM2151, antimicrobial peptide (Seq. ID No. 27) 16 μg/ml
# [12] = JCM2151, antimicrobial peptide (Seq. ID No. 27) 64 μg/ml
# [13] = JCM2151, antimicrobial peptide (Seq. ID No. 27) 256 μg/ml
# [14] = antimicrobial peptide (Seq. ID No. 27) 0 μg/ml
# [15] = antimicrobial peptide (Seq. ID No. 27) 16 μg/ml
# [16] = antimicrobial peptide (Seq. ID No. 27) 64 μg/ml
# [17] = antimicrobial peptide (Seq. ID No. 27) 256 μg/ml
molecule,measurement,setting,value
COc1cccc(OC)c1C(=O)N[C@@H]1C(=O)N2[C@@H]1SC(C)(C)[C@@H]2C(=O)O [staphcillin],MIC,Escherichia coli 0-111; [2],> 1 µg/mL
same,MIC,Escherichia coli 0-111; [3],> 1 µg/mL
same,MIC,Escherichia coli 0-111; [4],1 µg/mL
same,MIC,Escherichia coli 0-111; [5],0.01 µg/mL
same,Growth inhibiting Concentration of antibiotics,Escherichia coli 0-111; [6],> 1 µg/mL
same,Growth inhibiting Concentration of antibiotics,Escherichia coli 0-111; [7],> 1 µg/mL
same,Growth inhibiting Concentration of antibiotics,Escherichia coli 0-111; [8],> 1 µg/mL
same,Growth inhibiting Concentration of antibiotics,Escherichia coli 0-111; [9],0.1 µg/mL
same,MIC,[1]; [10],> 1 µg/mL
same,MIC,[1]; [11],> 1 µg/mL
same,MIC,[1]; [12],1 µg/mL
same,MIC,[1]; [13],0.01 µg/mL
same,Growth inhibiting Concentration of antibiotics,[1]; [6],> 1 µg/mL
same,Growth inhibiting Concentration of antibiotics,[1]; [7],> 1 µg/mL
same,Growth inhibiting Concentration of antibiotics,[1]; [8],> 1 µg/mL
same,Growth inhibiting Concentration of antibiotics,[1]; [9],0.1 µg/mL
gentamicin,Growth inhibiting Concentration of antibiotics,Escherichia coli 0-111; [14],1 µg/mL
same,Growth inhibiting Concentration of antibiotics,Escherichia coli 0-111; [15],1 µg/mL
same,Growth inhibiting Concentration of antibiotics,Escherichia coli 0-111; [16],0.1 µg/mL
same,Growth inhibiting Concentration of antibiotics,Escherichia coli 0-111; [17],0.1 µg/mL
same,Growth inhibiting Concentration of antibiotics,Escherichia coli 0-111; [6],1 µg/mL
same,Growth inhibiting Concentration of antibiotics,Escherichia coli 0-111; [7],1 µg/mL
same,Growth inhibiting Concentration of antibiotics,Escherichia coli 0-111; [8],0.1 µg/mL
same,Growth inhibiting Concentration of antibiotics,Escherichia coli 0-111; [9],0.1 µg/mL
same,Growth inhibiting Concentration of antibiotics,[1]; [14],1 µg/mL
same,Growth inhibiting Concentration of antibiotics,[1]; [15],0.1 µg/mL
same,Growth inhibiting Concentration of antibiotics,[1]; [16],0.1 µg/mL
same,Growth inhibiting Concentration of antibiotics,[1]; [17],0.1 µg/mL
same,Growth inhibiting Concentration of antibiotics,[1]; [6],1 µg/mL
same,Growth inhibiting Concentration of antibiotics,[1]; [7],0.1 µg/mL
same,Growth inhibiting Concentration of antibiotics,[1]; [8],0.1 µg/mL
same,Growth inhibiting Concentration of antibiotics,[1]; [9],0.1 µg/mL
NC[C@H]1O[C@H](O[C@H]2[C@H](O)[C@@H](O[C@H]3O[C@H](CO)[C@@H](O)[C@H](N)[C@H]3O)[C@H](N)C[C@@H]2N)[C@H](O)[C@@H](O)[C@@H]1O [kanamycin],MIC,Escherichia coli 0-111; [2],> 1 µg/mL
same,MIC,Escherichia coli 0-111; [3],> 1 µg/mL
same,MIC,Escherichia coli 0-111; [4],1 µg/mL
same,MIC,Escherichia coli 0-111; [5],0.01 µg/mL
same,Growth inhibiting Concentration of antibiotics,Escherichia coli 0-111; [6],> 1 µg/mL
same,Growth inhibiting Concentration of antibiotics,Escherichia coli 0-111; [7],> 1 µg/mL
same,Growth inhibiting Concentration of antibiotics,Escherichia coli 0-111; [8],1 µg/mL
same,Growth inhibiting Concentration of antibiotics,Escherichia coli 0-111; [9],0.1 µg/mL
same,MIC,[1]; [10],> 1 µg/mL
same,MIC,[1]; [11],> 1 µg/mL
same,MIC,[1]; [12],1 µg/mL
same,MIC,[1]; [13],0.01 µg/mL
same,Growth inhibiting Concentration of antibiotics,[1]; [6],> 1 µg/mL
same,Growth inhibiting Concentration of antibiotics,[1]; [7],> 1 µg/mL
same,Growth inhibiting Concentration of antibiotics,[1]; [8],> 1 µg/mL
same,Growth inhibiting Concentration of antibiotics,[1]; [9],0.1 µg/mL
CC(=O)OCC1=C(C(=O)O)N2C(=O)[C@@H](NC(=O)Cc3cccs3)[C@H]2SC1 [cephalothin],MIC,Escherichia coli 0-111; [2],> 1 µg/mL
same,MIC,Escherichia coli 0-111; [3],> 1 µg/mL
same,MIC,Escherichia coli 0-111; [4],1 µg/mL
same,MIC,Escherichia coli 0-111; [5],0.01 µg/mL
same,Growth inhibiting Concentration of antibiotics,Escherichia coli 0-111; [6],> 1 µg/mL
same,Growth inhibiting Concentration of antibiotics,Escherichia coli 0-111; [7],> 1 µg/mL
same,Growth inhibiting Concentration of antibiotics,Escherichia coli 0-111; [8],1 µg/mL
same,Growth inhibiting Concentration of antibiotics,Escherichia coli 0-111; [9],0.01 µg/mL
same,MIC,[1]; [10],> 1 µg/mL
same,MIC,[1]; [11],1 µg/mL
same,MIC,[1]; [12],1 µg/mL
same,MIC,[1]; [13],0.01 µg/mL
same,Growth inhibiting Concentration of antibiotics,[1]; [6],> 1 µg/mL
same,Growth inhibiting Concentration of antibiotics,[1]; [7],1 µg/mL
same,Growth inhibiting Concentration of antibiotics,[1]; [8],1 µg/mL
same,Growth inhibiting Concentration of antibiotics,[1]; [9],0.01 µg/mL
CN(C)[C@@H]1C(=O)C(C(N)=O)=C(O)[C@@]2(O)C(=O)C3=C(O)c4c(O)cccc4C(C)(O)[C@H]3C[C@@H]12 (some centres unmarked) [hostacyclin],Growth inhibiting Concentration of antibiotics,Escherichia coli 0-111; [14],1 µg/mL
same,Growth inhibiting Concentration of antibiotics,Escherichia coli 0-111; [15],1 µg/mL
same,Growth inhibiting Concentration of antibiotics,Escherichia coli 0-111; [16],1 µg/mL
same,Growth inhibiting Concentration of antibiotics,Escherichia coli 0-111; [17],0.1 µg/mL
same,Growth inhibiting Concentration of antibiotics,Escherichia coli 0-111; [6],1 µg/mL
same,Growth inhibiting Concentration of antibiotics,Escherichia coli 0-111; [7],1 µg/mL
same,Growth inhibiting Concentration of antibiotics,Escherichia coli 0-111; [8],1 µg/mL
same,Growth inhibiting Concentration of antibiotics,Escherichia coli 0-111; [9],0.1 µg/mL
same,Growth inhibiting Concentration of antibiotics,[1]; [14],1 µg/mL
same,Growth inhibiting Concentration of antibiotics,[1]; [15],1 µg/mL
same,Growth inhibiting Concentration of antibiotics,[1]; [16],1 µg/mL
same,Growth inhibiting Concentration of antibiotics,[1]; [17],0.1 µg/mL
same,Growth inhibiting Concentration of antibiotics,[1]; [6],1 µg/mL
same,Growth inhibiting Concentration of antibiotics,[1]; [7],1 µg/mL
same,Growth inhibiting Concentration of antibiotics,[1]; [8],1 µg/mL
same,Growth inhibiting Concentration of antibiotics,[1]; [9],0.1 µg/mL
O=C(N[C@H](CO)[C@H](O)c1ccc([N+](=O)[O-])cc1)C(Cl)Cl [chloramphenicol],MIC,Escherichia coli 0-111; [2],> 1 µg/mL
same,MIC,Escherichia coli 0-111; [3],> 1 µg/mL
same,MIC,Escherichia coli 0-111; [4],1 µg/mL
same,MIC,Escherichia coli 0-111; [5],0.1 µg/mL
same,Growth inhibiting Concentration of antibiotics,Escherichia coli 0-111; [6],> 1 µg/mL
same,Growth inhibiting Concentration of antibiotics,Escherichia coli 0-111; [7],> 1 µg/mL
same,Growth inhibiting Concentration of antibiotics,Escherichia coli 0-111; [8],> 1 µg/mL
same,Growth inhibiting Concentration of antibiotics,Escherichia coli 0-111; [9],0.1 µg/mL
same,MIC,[1]; [10],> 1 µg/mL
same,MIC,[1]; [11],> 1 µg/mL
same,MIC,[1]; [12],1 µg/mL
same,MIC,[1]; [13],1 µg/mL
same,Growth inhibiting Concentration of antibiotics,[1]; [6],> 1 µg/mL
same,Growth inhibiting Concentration of antibiotics,[1]; [7],> 1 µg/mL
same,Growth inhibiting Concentration of antibiotics,[1]; [8],> 1 µg/mL
same,Growth inhibiting Concentration of antibiotics,[1]; [9],1 µg/mL
polymyxin B,Growth inhibiting Concentration of antibiotics,Escherichia coli 0-111; [14],> 1 µg/mL
same,Growth inhibiting Concentration of antibiotics,Escherichia coli 0-111; [15],> 1 µg/mL
same,Growth inhibiting Concentration of antibiotics,Escherichia coli 0-111; [16],0.1 µg/mL
same,Growth inhibiting Concentration of antibiotics,Escherichia coli 0-111; [17],0.1 µg/mL
same,Growth inhibiting Concentration of antibiotics,Escherichia coli 0-111; [6],> 1 µg/mL
same,Growth inhibiting Concentration of antibiotics,Escherichia coli 0-111; [7],> 1 µg/mL
same,Growth inhibiting Concentration of antibiotics,Escherichia coli 0-111; [8],0.1 µg/mL
same,Growth inhibiting Concentration of antibiotics,Escherichia coli 0-111; [9],0.01 µg/mL
same,Growth inhibiting Concentration of antibiotics,[1]; [14],> 1 µg/mL
same,Growth inhibiting Concentration of antibiotics,[1]; [15],0.1 µg/mL
same,Growth inhibiting Concentration of antibiotics,[1]; [16],0.1 µg/mL
same,Growth inhibiting Concentration of antibiotics,[1]; [17],0.1 µg/mL
same,Growth inhibiting Concentration of antibiotics,[1]; [6],> 1 µg/mL
same,Growth inhibiting Concentration of antibiotics,[1]; [7],0.1 µg/mL
same,Growth inhibiting Concentration of antibiotics,[1]; [8],0.1 µg/mL
same,Growth inhibiting Concentration of antibiotics,[1]; [9],0.1 µg/mL
CC1(C)S[C@@H]2[C@H](NC(=O)[C@H](N)c3ccccc3)C(=O)N2[C@H]1C(=O)O [ampicillin],MIC,Escherichia coli 0-111; [2],> 1 µg/mL
same,MIC,Escherichia coli 0-111; [3],1 µg/mL
same,MIC,Escherichia coli 0-111; [4],1 µg/mL
same,MIC,Escherichia coli 0-111; [5],0.1 µg/mL
same,Growth inhibiting Concentration of antibiotics,Escherichia coli 0-111; [6],> 1 µg/mL
same,Growth inhibiting Concentration of antibiotics,Escherichia coli 0-111; [7],1 µg/mL
same,Growth inhibiting Concentration of antibiotics,Escherichia coli 0-111; [8],1 µg/mL
same,Growth inhibiting Concentration of antibiotics,Escherichia coli 0-111; [9],0.01 µg/mL
same,MIC,[1]; [10],> 1 µg/mL
same,MIC,[1]; [11],1 µg/mL
same,MIC,[1]; [12],1 µg/mL
same,MIC,[1]; [13],0.1 µg/mL
same,Growth inhibiting Concentration of antibiotics,[1]; [6],> 1 µg/mL
same,Growth inhibiting Concentration of antibiotics,[1]; [7],1 µg/mL
same,Growth inhibiting Concentration of antibiotics,[1]; [8],1 µg/mL
same,Growth inhibiting Concentration of antibiotics,[1]; [9],0.1 µg/mL
